According to ChEMBL document CHEMBL1156760, “Synthesis and biological evaluation of new nanomolar competitive inhibitors of Helicobacter pylori type II dehydroquinase. Structural details of the role of the aromatic moieties with essential residues” (J Med Chem, 2010):

Biological target: T1, 3-dehydroquinate dehydratase (Helicobacter pylori (strain ATCC 700392 / 26695) (Campylobacterpylori), UniProt Q48255)
T1 sequence (Q48255 whole entry): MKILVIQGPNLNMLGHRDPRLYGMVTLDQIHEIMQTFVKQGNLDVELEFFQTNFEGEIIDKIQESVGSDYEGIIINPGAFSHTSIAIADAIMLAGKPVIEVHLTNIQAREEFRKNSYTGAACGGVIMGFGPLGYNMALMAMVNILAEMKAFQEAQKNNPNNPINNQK
Assay: Inhibition of Helicobacter pylori DHQ2 by UV spectroscopy

Ki: 132 nM
SMILES: O=C(O)[C@]1(O)C=C(OCc2cc3ccccc3s2)[C@@H](O)[C@H](O)C1
